Laboratory results taken from patent publication US10294202B2, “Pyrrolidinones as herbicides” (FMC Corporation, priority 2013, dated 2019).

Key:
cocklebur = test: Test C pre-/postemergence herbicide test; assay type: in vivo, Xanthium strumarium
In short: (§1)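 Compound solutions contained surfactant in a non-phytotoxic solvent. These were sprayed onto pots of loam/sand sown with seeds, and onto young plants (2 to 18 cm, 1- to 4-leaf) in sphagnum peat–vermiculite mix. Visual injury scores (0 none, 100 complete control) were recorded after 13 to 15 days.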

goosegrass = test: Test C pre-/postemergence herbicide test; assay type: in vivo, Eleusine indica
In short: as §1

Russian thistle = test: Test C pre-/postemergence herbicide test; assay type: in vivo, Salsola kali; conditions: Preemergence
In short: as §1

sunflower = test: Test C pre-/postemergence herbicide test; assay type: in vivo, Helianthus annuus; conditions: Preemergence
In short: as §1

barley, winter = test: Test D pre-/postemergence herbicide test; assay type: in vivo, Hordeum vulgare; conditions: Postemergence, Barley, Winter, scale 0 to 100
In short: (§2)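 Test chemicals in a non-phytotoxic solvent with surfactant were applied preemergence to seeds in silt loam soil and postemergence to plants at 2-18 cm (1- to 4-leaf stage) in peat-based medium. After 7 to 21 days in a controlled environment, injury was rated visually versus controls on a 0-100 scale (100 = complete control).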

barley, spring = test: Test D pre-/postemergence herbicide test; assay type: in vivo, Hordeum vulgare; conditions: Postemergence, Barley, Spring, scale 0 to 100
In short: as §2

cupgrass, woolly = test: Test C pre-/postemergence herbicide test; assay type: in vivo, Eriochloa villosa
In short: as §1

surinam grass = test: Test C pre-/postemergence herbicide test; assay type: in vivo, Brachiaria decumbens
In short: as §1

foxtail, green = test: Test C pre-/postemergence herbicide test; assay type: in vivo, Setaria viridis
In short: as §1

nightshade = test: Test C pre-/postemergence herbicide test; assay type: in vivo, Solanum ptycanthum; conditions: Preemergence
In short: as §1

bromegrass, downy = test: Test C pre-/postemergence herbicide test; assay type: in vivo, Bromus tectorum
In short: as §1

bermudagrass = test: Test C pre-/postemergence herbicide test; assay type: in vivo, Cynodon dactylon
In short: as §1

[1] = Postemergence, 31 g ai/ha, scale 0 (no effect) to 100 (complete control)
[2] = Postemergence, 62 g ai/ha, scale 0 to 100 (0 no effect, 100 complete control)
[3] = Postemergence, 125 g ai/ha, scale 0 to 100 (0 no effect, 100 complete control)
[4] = Postemergence, 250 g ai/ha, scale 0 to 100 (0 no effect, 100 complete control)
[5] = Preemergence, 31 g ai/ha, scale 0 to 100 (0 no effect, 100 complete control)
[6] = Preemergence, 62 g ai/ha, scale 0 to 100
[7] = Preemergence, 125 g ai/ha, scale 0 to 100 (0 no effect, 100 complete control)
[8] = Preemergence, 250 g ai/ha, scale 0 to 100 (0 no effect, 100 complete control)
[9] = 125 g ai/ha, scale 0 to 100 (0 no effect, 100 complete control)

## O=C1NCC(c2cc(F)c(F)c(F)c2)C1C(=O)Nc1ccccc1F (racemic) [Compound 34]
cocklebur; [1]
  Plant response rating, Cocklebur: 0
cocklebur; [2]
  Plant response rating, Cocklebur: 5
cocklebur; [3]
  Plant response rating, Cocklebur: 5
cocklebur; [4]
  Plant response rating, Cocklebur: 25
cocklebur; [5]
  Cocklebur plant response rating: 0
cocklebur; [6]
  Plant response rating, Cocklebur: 0
cocklebur; [7]
  Plant response rating, Cocklebur: 0
cocklebur; [8]
  Plant response rating, Cocklebur: 0
goosegrass; [1]
  Plant response rating, Goosegrass: 10
goosegrass; [2]
  Plant response rating, Goosegrass: 15
goosegrass; [3]
  Plant response rating, Goosegrass: 15
goosegrass; [4]
  Plant response rating, Goosegrass: 25
goosegrass; [5]
  Goosegrass plant response rating: 0
goosegrass; [6]
  Plant response rating, Goosegrass: 5
goosegrass; [7]
  Plant response rating, Goosegrass: 10
Russian thistle; 62 g ai/ha, scale 0 to 100
  Plant response rating, Russian Thistle: 0
Russian thistle; [9]
  Plant response rating, Russian Thistle: 0
sunflower; 62 g ai/ha, scale 0 to 100
  Plant response rating Sunflower: 0
sunflower; [9]
  Plant response rating Sunflower: 0
barley, winter; 16 g ai/ha
  Plant response rating: 0
barley, winter; 31 g ai/ha
  Plant response rating: 0
barley, winter; 62 g ai/ha
  Plant response rating: 0
barley, winter; 125 g ai/ha
  Plant response rating: 0
barley, winter; 250 g ai/ha
  Plant response rating: 0
barley, spring; 16 g ai/ha
  Plant response rating: 0
barley, spring; 31 g ai/ha
  Plant response rating: 0
barley, spring; 62 g ai/ha
  Plant response rating: 0
barley, spring; 125 g ai/ha
  Plant response rating: 0
barley, spring; 250 g ai/ha
  Plant response rating: 0
cupgrass, woolly; [1]
  Plant response rating, Cupgrass, Woolly: 0
cupgrass, woolly; [2]
  Plant response rating, Cupgrass, Woolly: 0
cupgrass, woolly; [3]
  Plant response rating, Cupgrass, Woolly: 0
cupgrass, woolly; [4]
  Plant response rating, Cupgrass, Woolly: 30
cupgrass, woolly; [5]
  Cupgrass, Woolly plant response rating: 50
cupgrass, woolly; [6]
  Plant response rating, Cupgrass, Woolly: 85
cupgrass, woolly; [7]
  Plant response rating, Cupgrass, Woolly: 95
cupgrass, woolly; [8]
  Plant response rating, Cupgrass, Woolly: 95
Surinam grass; [1]
  Plant response rating, Surinam Grass: 0
Surinam grass; [2]
  Plant response rating, Surinam Grass: 0
Surinam grass; [3]
  Plant response rating, Surinam Grass: 55
Surinam grass; [4]
  Plant response rating, Surinam Grass: 60
Surinam grass; [6]
  Plant response rating, Surinam Grass: 95
Surinam grass; [7]
  Plant response rating, Surinam Grass: 100
foxtail, green; [1]
  Plant response rating, Foxtail, Green: 0
foxtail, green; [2]
  Plant response rating, Foxtail, Green: 60
foxtail, green; [3]
  Plant response rating, Foxtail, Green: 60
foxtail, green; [4]
  Plant response rating, Foxtail, Green: 60
foxtail, green; [5]
  Foxtail, Green plant response rating: 98
foxtail, green; [6]
  Plant response rating, Foxtail, Green: 98
foxtail, green; [7]
  Plant response rating, Foxtail, Green: 98
foxtail, green; [8]
  Plant response rating, Foxtail, Green: 100
nightshade; 62 g ai/ha, scale 0 to 100
  Plant response rating, Nightshade: 0
nightshade; [9]
  Plant response rating, Nightshade: 0
bromegrass, downy; [1]
  Plant response rating, Bromegrass, Downy: 0
bromegrass, downy; [2]
  Plant response rating, Bromegrass, Downy: 0
bromegrass, downy; [3]
  Plant response rating, Bromegrass, Downy: 0
bromegrass, downy; [4]
  Plant response rating, Bromegrass, Downy: 0
bromegrass, downy; [5]
  Bromegrass, Downy plant response rating: 0
bromegrass, downy; [6]
  Plant response rating, Bromegrass, Downy: 0
bromegrass, downy; [7]
  Plant response rating, Bromegrass, Downy: 10
bromegrass, downy; [8]
  Plant response rating, Bromegrass, Downy: 30
bermudagrass; [1]
  Plant response rating, Bermudagrass: 0
bermudagrass; [2]
  Plant response rating, Bermudagrass: 0
bermudagrass; [3]
  Plant response rating, Bermudagrass: 0
bermudagrass; [4]
  Plant response rating, Bermudagrass: 0
bermudagrass; [5]
  Bermudagrass plant response rating: 0
bermudagrass; [6]
  Plant response rating, Bermudagrass: 0
bermudagrass; [7]
  Plant response rating, Bermudagrass: 0
bermudagrass; [8]
  Plant response rating, Bermudagrass: 45
